Key:
NLRP3 inflammasome = assay: PBMC assay: IL-1β in LPS-stimulated human PBMCs (MSD); type: cell-based; conditions: human PBMCs, 100 ng/ml LPS for 6 hrs, IL-1β in supernatant via MSD, read-out: IL1β IC50
Protocol: The activity of a compound according to the present invention can be assessed by in vitro methods.
Peripheral venous blood was collected from healthy individuals and human peripheral blood mononuclear cells (PBMCs) were isolated from blood by Ficoll-Histopaque (Sigma-Aldrich, A0561) density gradient centrifugation. After isolation, PBMCs were stored in liquid nitrogen for later use. Upon thawing, PBMC cell viability was determined in growth medium (RPMI media supplemented with 10% fetal bovine serum, 1% Pen-Strep and 1% L-glutamine). […] PBMCs were added at a density of 7.5×10^4 cells per well and incubated for 30 min in a 5% CO2 incubator at 37° C. LPS stimulation was performed by addition of 100 ng/ml LPS (final concentration, Invivogen, tlrl-smlps) for 6 hrs followed by collection of cellular supernatant and the analysis of IL-1β (μM) and TNF cytokines levels (μM) via MSD technology according to manufacturers' guidelines (MSD, K151A0H).

TNF = assay: PBMC assay: TNF cytokine levels in LPS-stimulated human PBMCs (MSD); type: cell-based; conditions: 100 ng/ml LPS for 6 hrs, TNF in supernatant via MSD
Protocol: Peripheral venous blood was collected from healthy individuals and human peripheral blood mononuclear cells (PBMCs) were isolated from blood by Ficoll-Histopaque (Sigma-Aldrich, A0561) density gradient centrifugation. After isolation, PBMCs were stored in liquid nitrogen for later use. Upon thawing, PBMC cell viability was determined in growth medium (RPMI media supplemented with 10% fetal bovine serum, 1% Pen-Strep and 1% L-glutamine). Compounds were spotted in a 1:3 serial dilution in DMSO and diluted to the final concentration in 30 μl medium in 96 well plates (Falcon, 353072). PBMCs were added at a density of 7.5×10^4 cells per well and incubated for 30 min in a 5% CO2 incubator at 37° C. LPS stimulation was performed by addition of 100 ng/ml LPS (final concentration, Invivogen, tlrl-smlps) for 6 hrs followed by collection of cellular supernatant and the analysis of IL-1β (μM) and TNF cytokines levels (μM) via MSD technology according to manufacturers' guidelines (MSD, K151A0H).
The IC50 values (for IL-1β) and EC50 values (TNF) were obtained on compounds of the invention/examples, and are depicted in the following table: […]

Compound	IC50 (NLRP3 inflammasome) [µM]	EC50 (TNF) [µM]
CC(C)c1nn(CC(=O)N[C@@H]2CCCN(CC(F)(F)F)C2)c(=O)c2cc(C3CC3)nn12 [Final Cpd 189, (R)-2-(2-cyclopropyl-7-isopropyl-4-oxopyrazolo[1,5-d][1,2,4]triazin-5(4H)-yl)-N-(1-(2,2,2-trifluoroethyl)piperidin-3-yl)acetamide]	1.16	> 10
CCc1cc2c(=O)n(CC(=O)Nc3ccnnc3)nc(N(C)C)n2n1 [Final Cpd 152]	0.86	> 10
CCNc1cc2c(=O)n(CC(=O)N[C@H]3C[C@@](C)(O)C3)nc(C(C)C)n2n1 [Final Cpd 73]	0.11	> 10
CNc1cc2c(=O)n(CC(=O)Nc3ccncn3)nc(C(C)C)n2n1 [Final Cpd 18, 2-[7-isopropyl-2-(methylamino)-4-oxo-pyrazolo[1,5-d] [1,2,4]triazin-5-yl]—N-pyrimidin-4-yl-acetamide]	0.16	> 10
CCC(C)c1nn(CC(=O)N[C@H]2C[C@@](C)(O)C2)c(=O)c2cc(C3CC3)nn12 (stereo partly drawn) [Final Cpd 201]	> 10	> 10
Cc1nn(CC(=O)NC2CC(c3ccc(O)cc3)C2)c(=O)c2cc(C3CC3)nn12 (stereo not drawn) [Final Cpd 66]	3.55	> 10
Cc1nn(CC(=O)NC2(CO)CCCC2)c(=O)c2cc(C3CC3)nn12 [Final Cpd 57]	> 10	> 10
CC(C)c1cc2c(=O)n(CC(=O)N[C@H]3C[C@@](C)(O)C3)nc(C(C)O)n2n1 (stereo partly drawn) [Final Cpd 154]	3	> 10
CC(C)c1cc2c(=O)n(CC(=O)N[C@H]3C[C@@](C)(O)C3)nc(C(C)C)n2n1 [Final Cpd 142]	0.14	> 10
CC(C)c1nn(CC(=O)N[C@H]2CCC(=O)N(CC3CC3)C2)c(=O)c2cc(C3CC3)nn12 [Final Cpd 27]	0.99	> 10
CCc1nn(CC(=O)Nc2ccncn2)c(=O)c2cc(C(C)C)nn12 [Final Cpd 16]	0.84	> 10
C[C@]1(O)C[C@@H](NC(=O)Cn2nc(CC3CCOC3)n3nc(C4CC4)cc3c2=O)C1 (stereo partly drawn) [Final Cpd 197]	> 10	> 10
CC(=O)c1cc2c(=O)n(CC(=O)Nc3ccncn3)nc(C(C)C)n2n1 [Final Cpd 183, 2-(2-acetyl-7-isopropyl-4-oxopyrazolo[1,5-d][1,2,4]triazin-5(4H)-yl)-N-(pyrimidin-4-yl)acetamide]	5.04	> 10
CCc1nn(CC(=O)NC2CCCC2)c(=O)c2ccnn12 [Final Cpd 78]	> 10	> 10
Cc1nn(CC(=O)NC2(C)CCC2)c(=O)c2cc(C3CC3)nn12 [Final Cpd 62]	8.53	> 10
Cc1nn(CC(=O)N[C@H]2CCN(Cc3ccncc3)C2)c(=O)c2cc(C3CC3)nn12 [Final Cpd 59]	> 10	> 10
CC(C)c1cc2c(=O)n(CC(=O)Nc3ccncn3)nc(C(C)O)n2n1 (stereo not drawn) [Final Cpd 156]	1.96	> 10
Cc1nn(CC(=O)N[C@@H]2CCN(c3nc4cccnc4o3)C2)c(=O)c2cc(C3CC3)nn12 [Final Cpd 56]	6.97	> 10
CC(C)c1nn(CC(=O)N[C@H]2CNCC[C@H]2O)c(=O)c2cc(C3CC3)nn12 [Final Cpd 188]	0.74	> 10
CC(C)c1nn(CC(=O)N[C@H]2C[C@@](C)(O)C2)c(=O)c2cc(C(O)C(F)(F)F)nn12 (stereo partly drawn) [Final Cpd 158]	> 10	> 10
CCCc1cc2c(=O)n(CC(=O)Nc3ccncn3)nc(CC)n2n1 [Final Cpd 15]	2.4	> 10
Cc1nn(CC(=O)N[C@@H]2COC[C@@H]2CC(C)C)c(=O)c2cc(C3CC3)nn12 [Final Cpd 55]	> 10	> 10
CC(C)c1nn(CC(=O)N[C@H]2C[C@@](C)(O)C2)c(=O)c2c(N)c(C3CC3)nn12 [Final Cpd 181, 2-(3-amino-2-cyclopropyl-7-isopropyl-4-oxopyrazolo[1,5-d][1,2,4]triazin-5(4H)-yl)-N-((ls,3s)-3-hydroxy-3-methylcyclobutyl)acetamide]	0.48	> 10
CC(C)c1nn(CC(=O)Nc2ccncn2)c(=O)c2cc(N3CCC3)nn12 [Final Cpd 21]	2.75	> 10
CC(C)c1nn(CC(=O)NC2CC(C(C)(C)O)C2)c(=O)c2cc(C3CC3)nn12 (stereo not drawn) [Final Cpd 88]	1.29	> 10
C=CC(C)c1nn(CC(=O)N[C@H]2C[C@@](C)(O)C2)c(=O)c2cc(C3CC3)nn12 (stereo partly drawn) [Final Cpd 200]	> 10	> 10
Cc1cc2c(=O)n(CC(=O)Nc3ccncn3)nc(C(C)C)n2n1 [Final Cpd 17]	1.1	> 10
CC(C)c1cc2c(=O)n(CC(=O)Nc3ccncn3)nc(N(C)C)n2n1 [Final Cpd 147]	0.4	> 10

More lines, now with the values ahead:

IC50 (NLRP3 inflammasome) [µM]	EC50 (TNF) [µM]	Compound
0.17	> 10	CC(C)c1nn(CC(=O)Nc2ccncn2)c(=O)c2cc(C3CC3)nn12 [Final Cpd 11]
3.57	> 10	Cc1ncc(NC(=O)Cn2nc(C(C)C)n3nc(C4CC4)cc3c2=O)cn1 [Final Cpd 131]
> 10	> 10	COCCN(C)c1nn(CC(=O)Nc2ccc3nncn3c2)c(=O)c2cc(C3CC3)nn12 [Final Cpd 38]
0.63	> 10	Cc1nnc2n1CC(NC(=O)Cn1nc(C(C)C)n3nc(C4CC4)cc3c1=O)CC2 (stereo not drawn) [Final Cpd 84]
0.38	> 10	CC(C)c1nn(CC(=O)Nc2ccc(=O)n(C)c2)c(=O)c2cc(C3CC3)nn12 [Final Cpd 28]
1.62	> 10	Cc1cc(NC(=O)Cn2nc(C(C)C)n3nc(C4CC4)cc3c2=O)c(C)cn1 [Final Cpd 104]
1.51	> 10	CC(C)c1nn(CC(=O)Nc2ccn3cnnc3c2)c(=O)c2cc(C3CC3)nn12 [Final Cpd 93]
1.23	> 10	CC(C)c1nn(CC(=O)Nc2ccc(C(F)F)nc2)c(=O)c2cc(C3CC3)nn12 [Final Cpd 116]
0.62	> 10	CC(C)c1nn(CC(=O)Nc2ccc3nncn3c2)c(=O)c2c(F)c(C3CC3)nn12 [Final Cpd 44]
0.063	6.17	CC(C)c1nn(CC(=O)Nc2ccc3cncn3c2)c(=O)c2cc(C3CC3)nn12 [Final Cpd 87]
2.49	> 10	COCCNc1nn(CC(=O)Nc2ccc3nncn3c2)c(=O)c2cc(C3CC3)nn12 [Final Cpd 39]
9.37	> 10	COc1ccncc1NC(=O)Cn1nc(C(C)C)n2nc(C3CC3)cc2c1=O [Final Cpd 125]
0.055	> 10	CC(C)c1nn(CC(=O)Nc2ccc3nncn3c2)c(=O)c2cc(I)nn12 [Final Cpd 23]
6.75	> 10	CC(C)c1nn(CC(=O)Nc2ccc(C(F)F)nn2)c(=O)c2cc(C3CC3)nn12 [Final Cpd 174]
0.54	> 10	CC(C)c1nn(CC(=O)Nc2cc(F)[nH]c(=O)c2)c(=O)c2cc(C3CC3)nn12 [Final Cpd 164]
0.22	> 10	Cc1nnc2ccc(NC(=O)Cn3nc(C(C)C)n4nc(C5CC5)cc4c3=O)nn12 [Final Cpd 171]
> 10	> 10	CC(C)c1nn(CC(=O)Nc2ccc(I)nn2)c(=O)c2cc(C3CC3)nn12 [Final Cpd 173]
> 10	> 10	CC(C)c1nn(CC(=O)Nc2nccc(C(F)(F)F)n2)c(=O)c2cc(C3CC3)nn12 [Final Cpd 98]
0.37	> 10	CC(C)c1nn(CC(=O)Nc2cc(Br)c3nncn3c2)c(=O)c2cc(C3CC3)nn12 [Final Cpd 95]
0.44	≥ 10	CC(C)c1nn(CC(=O)Nc2ccncc2Cl)c(=O)c2cc(C3CC3)nn12 [Final Cpd 133]
0.42	> 10	CCc1cc2c(=O)n(CC(=O)Nc3ccnnc3)nc(C(C)C)n2n1 [Final Cpd 141]
0.1	> 10	CC(C)c1nn(CC(=O)Nc2ccc3nncn3c2)c(=O)c2c(N)c(C3CCC3)nn12 [Final Cpd 182]
> 10	> 10	CC(C)c1nn(CC(=O)Nc2ccc(C(F)(F)F)nn2)c(=O)c2cc(C3CC3)nn12 [Final Cpd 172, 2-(2-cyclopropyl-7-isopropyl-4-oxopyrazolo[1,5-d][1,2,4]triazin-5(4H)-yl)-N-(6-(trifluoromethyl)pyridazin-3-yl)acetamide]
